Experimental data published in PMC5698704 (Chemmedchem, 2017).
Where “and” joins values, the source holds several entries; their conditions need not be identical. Equal values may be shown once.

Experiments:
CYP3A4 = assay: CYP induction in cultured human hepatocytes; assay type: in vitro ADME
Flt3(h) = biological target: T1, Flt3(h) (Homo sapiens, UniProt P36888); assay: Merck Millipore KinaseProfiler; assay type: biochemical; settings: Merck Millipore KinaseProfiler panel
T1 sequence (P36888 27-993): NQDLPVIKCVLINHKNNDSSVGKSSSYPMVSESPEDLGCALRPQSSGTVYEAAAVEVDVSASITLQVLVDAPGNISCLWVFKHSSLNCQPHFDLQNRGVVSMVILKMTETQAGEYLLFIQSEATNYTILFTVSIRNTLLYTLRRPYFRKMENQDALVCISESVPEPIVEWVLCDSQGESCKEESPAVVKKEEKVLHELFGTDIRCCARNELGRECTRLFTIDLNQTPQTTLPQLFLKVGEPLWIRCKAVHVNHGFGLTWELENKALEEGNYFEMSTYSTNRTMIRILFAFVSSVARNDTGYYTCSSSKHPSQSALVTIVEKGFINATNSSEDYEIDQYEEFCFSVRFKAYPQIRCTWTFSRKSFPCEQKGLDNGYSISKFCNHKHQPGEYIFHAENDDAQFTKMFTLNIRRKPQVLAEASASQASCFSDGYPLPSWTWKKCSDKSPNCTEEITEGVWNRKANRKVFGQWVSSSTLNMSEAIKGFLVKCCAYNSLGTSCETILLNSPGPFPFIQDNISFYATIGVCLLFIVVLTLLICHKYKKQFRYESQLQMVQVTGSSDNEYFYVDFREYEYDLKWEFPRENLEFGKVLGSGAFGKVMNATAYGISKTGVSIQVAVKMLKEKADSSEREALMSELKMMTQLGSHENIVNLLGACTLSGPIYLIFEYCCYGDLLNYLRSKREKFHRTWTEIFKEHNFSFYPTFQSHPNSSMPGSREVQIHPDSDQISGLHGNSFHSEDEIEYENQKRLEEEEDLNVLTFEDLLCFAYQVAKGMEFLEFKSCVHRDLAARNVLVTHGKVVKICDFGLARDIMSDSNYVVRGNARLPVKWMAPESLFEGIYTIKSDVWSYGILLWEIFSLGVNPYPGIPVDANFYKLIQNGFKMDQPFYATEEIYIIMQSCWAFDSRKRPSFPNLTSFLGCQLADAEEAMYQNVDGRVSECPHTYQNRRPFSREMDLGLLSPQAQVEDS

[1] = MV4‐11 human AML xenograft model in rats; assay type: in vivo, rat; settings: female, athymic nude, rat, in vivo, po, 12 mg kg^−1
MV4‐11 human AML model = assay: MV4‐11 human AML xenograft model in rats; assay type: in vivo, rat
MOLM‐13 cells = assay: Proliferation assay MOLM‐13; assay type: cell-based; settings: Homo sapiens, MOLM-13, 96 h, read-out: MOLM‐13 IC50
MOLM‐13 human AML model = assay: MOLM‐13 human AML xenograft model in mice; assay type: in vivo, mouse; settings: throughout the study, all BAY 1143572 regimens
HeLa cells = assay: Proliferation assay HeLa; assay type: cell-based; settings: Homo sapiens, 96 h, read-out: HeLa IC50
[2] = Equilibrium shake flask solubility assay; assay type: physicochemical; settings: aqueous solubility, phosphate buffer pH 6.5, 24 h; solid state not characterized
[3] = tested on: CYP1A2, CYP2C8, CYP2C9, CYP2D6, CYP3A4; assay: CYP inhibition in human liver microsomes; assay type: in vitro ADME
CDK3/cyclinE(h) = CDK3/cyclinE(h) (Homo sapiens, UniProt Q00526); assay: Merck Millipore KinaseProfiler; assay type: biochemical; settings: IC50 CDK3/CycE(h), Millipore panel, 10 µM ATP
MV4‐11 cells = assay: Antiproliferative activity MV4‐11; assay type: cell-based; settings: Homo sapiens, MV4-11, read-out: MV4‐11 IC50
CDK1/cyclinB(h) = CDK1/cyclinB(h) (Homo sapiens, UniProt P06493); assay: Merck Millipore KinaseProfiler; assay type: biochemical; settings: IC50 CDK1/CycB(h), Millipore panel, 10 µM ATP
CDK5/p35(h) = CDK5/p35(h) (Homo sapiens, UniProt Q00535); assay: Merck Millipore KinaseProfiler; assay type: biochemical; settings: Millipore panel, 10 µM ATP
[4] = Blood/plasma partitioning in rats; assay type: in vitro ADME; settings: rat, blood and plasma
rat hepatocytes = assay: Metabolic stability in rat hepatocytes; assay type: in vitro ADME; settings: predicted blood clearance from rat hepatocytes, 1 μM
[5] = Caco‐2 permeability assay; assay type: in vitro ADME; settings: human, Caco-2, pH 7.2
CDK2/CycE = CDK2/CycE kinase assay; assay type: biochemical, human; settings: ratio of IC50 values CDK2/CDK9, in-house assays
CDK7/cyclinH/MAT1(h) = CDK7/cyclinH/MAT1(h) (Homo sapiens, UniProt P50613); assay: Merck Millipore KinaseProfiler; assay type: biochemical
CDK2/cyclinE(h) = CDK2/cyclinE(h) (Homo sapiens, UniProt P24941); assay: Merck Millipore KinaseProfiler; assay type: biochemical; settings: IC50 CDK2/CycE(h), Millipore panel, 10 µM ATP
CDK9/cyclin T1(h) = CDK9/cyclin T1(h) (Homo sapiens, UniProt P50750); assay: Merck Millipore KinaseProfiler; assay type: biochemical
[6] = Metabolic stability in rat liver microsomes; assay type: in vitro ADME; settings: predicted blood clearance from rat liver microsomes
CDK6/cyclinD3(h) = CDK6/cyclinD3(h) (Homo sapiens, UniProt Q00534); assay: Merck Millipore KinaseProfiler; assay type: biochemical
CDK6/cyclinD3(h), sequence (Q00534 whole entry): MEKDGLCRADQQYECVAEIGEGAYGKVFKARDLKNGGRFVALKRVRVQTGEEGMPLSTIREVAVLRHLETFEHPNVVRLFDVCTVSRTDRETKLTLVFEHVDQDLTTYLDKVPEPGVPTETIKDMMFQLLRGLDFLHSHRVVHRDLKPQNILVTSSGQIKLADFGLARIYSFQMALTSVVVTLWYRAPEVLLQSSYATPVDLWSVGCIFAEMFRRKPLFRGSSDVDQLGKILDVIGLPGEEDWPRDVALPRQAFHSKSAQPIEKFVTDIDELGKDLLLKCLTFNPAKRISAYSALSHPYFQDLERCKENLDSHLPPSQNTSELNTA
CDK6/cyclinD3(h), sequence (P30281 whole entry partner): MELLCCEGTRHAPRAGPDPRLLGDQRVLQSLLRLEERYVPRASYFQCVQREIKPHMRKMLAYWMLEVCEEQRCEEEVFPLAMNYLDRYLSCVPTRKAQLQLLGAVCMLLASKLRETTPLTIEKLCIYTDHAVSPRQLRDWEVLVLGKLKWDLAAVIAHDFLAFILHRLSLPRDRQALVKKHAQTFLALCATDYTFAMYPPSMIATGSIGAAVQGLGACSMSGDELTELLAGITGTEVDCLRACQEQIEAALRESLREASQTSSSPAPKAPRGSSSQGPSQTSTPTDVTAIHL

CDK3/cyclinE(h), sequence (Q00526 whole entry): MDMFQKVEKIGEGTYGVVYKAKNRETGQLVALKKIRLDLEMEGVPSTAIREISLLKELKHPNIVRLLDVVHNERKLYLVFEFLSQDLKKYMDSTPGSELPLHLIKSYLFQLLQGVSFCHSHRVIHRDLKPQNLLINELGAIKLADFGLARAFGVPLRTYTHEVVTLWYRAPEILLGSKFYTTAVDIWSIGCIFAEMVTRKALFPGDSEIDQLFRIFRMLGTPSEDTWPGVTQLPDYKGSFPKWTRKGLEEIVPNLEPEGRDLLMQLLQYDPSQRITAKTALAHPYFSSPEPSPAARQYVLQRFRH
CDK3/cyclinE(h), sequence (P24864 whole entry, further chain): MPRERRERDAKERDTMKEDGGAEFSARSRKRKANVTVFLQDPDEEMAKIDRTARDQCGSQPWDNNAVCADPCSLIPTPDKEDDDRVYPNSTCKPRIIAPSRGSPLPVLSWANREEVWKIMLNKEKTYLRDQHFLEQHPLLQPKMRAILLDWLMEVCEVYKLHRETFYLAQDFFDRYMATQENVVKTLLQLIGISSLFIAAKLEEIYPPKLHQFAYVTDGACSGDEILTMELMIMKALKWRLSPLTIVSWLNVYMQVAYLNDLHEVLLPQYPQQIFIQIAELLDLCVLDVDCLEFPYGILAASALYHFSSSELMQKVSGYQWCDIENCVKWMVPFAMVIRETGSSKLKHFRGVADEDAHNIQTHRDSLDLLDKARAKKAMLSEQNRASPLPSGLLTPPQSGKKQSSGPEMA
CDK9/cyclin T1(h), sequence (P50750 whole entry): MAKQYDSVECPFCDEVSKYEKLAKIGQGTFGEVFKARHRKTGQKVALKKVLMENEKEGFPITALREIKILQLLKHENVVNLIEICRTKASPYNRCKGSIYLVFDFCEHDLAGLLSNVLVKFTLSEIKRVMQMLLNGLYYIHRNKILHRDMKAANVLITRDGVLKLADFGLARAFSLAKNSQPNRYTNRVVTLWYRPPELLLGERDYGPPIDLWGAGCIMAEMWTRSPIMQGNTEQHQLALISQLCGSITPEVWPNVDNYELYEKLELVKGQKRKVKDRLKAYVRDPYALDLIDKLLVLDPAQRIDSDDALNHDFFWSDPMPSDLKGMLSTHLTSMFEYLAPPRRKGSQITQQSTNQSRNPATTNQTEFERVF
CDK9/cyclin T1(h), sequence (O60563 whole entry partner): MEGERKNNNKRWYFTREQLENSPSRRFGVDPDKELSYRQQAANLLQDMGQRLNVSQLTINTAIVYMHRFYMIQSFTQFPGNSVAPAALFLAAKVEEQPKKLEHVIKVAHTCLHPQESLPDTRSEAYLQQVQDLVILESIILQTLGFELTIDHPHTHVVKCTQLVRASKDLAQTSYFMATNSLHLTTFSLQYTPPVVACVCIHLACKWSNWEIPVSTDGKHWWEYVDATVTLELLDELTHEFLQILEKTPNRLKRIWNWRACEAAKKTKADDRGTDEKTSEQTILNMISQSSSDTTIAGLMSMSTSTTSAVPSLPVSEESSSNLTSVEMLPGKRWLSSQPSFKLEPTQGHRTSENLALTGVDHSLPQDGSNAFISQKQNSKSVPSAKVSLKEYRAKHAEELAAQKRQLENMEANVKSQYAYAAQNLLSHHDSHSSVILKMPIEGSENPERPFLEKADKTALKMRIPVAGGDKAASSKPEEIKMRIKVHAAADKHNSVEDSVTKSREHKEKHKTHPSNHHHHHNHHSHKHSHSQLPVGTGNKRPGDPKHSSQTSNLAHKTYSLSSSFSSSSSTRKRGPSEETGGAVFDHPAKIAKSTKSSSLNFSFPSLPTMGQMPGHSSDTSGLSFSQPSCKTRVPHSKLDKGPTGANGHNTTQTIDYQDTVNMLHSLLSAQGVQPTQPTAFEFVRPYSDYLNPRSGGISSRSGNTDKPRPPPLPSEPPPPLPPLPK
CDK5/p35(h), sequence (Q00535 whole entry): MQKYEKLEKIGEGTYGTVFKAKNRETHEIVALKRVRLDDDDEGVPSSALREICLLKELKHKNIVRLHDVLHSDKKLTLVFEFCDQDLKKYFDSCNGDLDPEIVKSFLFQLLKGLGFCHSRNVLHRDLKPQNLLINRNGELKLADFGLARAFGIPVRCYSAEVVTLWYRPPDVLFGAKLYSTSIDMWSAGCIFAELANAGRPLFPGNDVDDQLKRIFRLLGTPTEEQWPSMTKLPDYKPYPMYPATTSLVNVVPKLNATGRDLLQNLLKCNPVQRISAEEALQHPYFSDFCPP
CDK5/p35(h), sequence (Q15078 whole entry partner): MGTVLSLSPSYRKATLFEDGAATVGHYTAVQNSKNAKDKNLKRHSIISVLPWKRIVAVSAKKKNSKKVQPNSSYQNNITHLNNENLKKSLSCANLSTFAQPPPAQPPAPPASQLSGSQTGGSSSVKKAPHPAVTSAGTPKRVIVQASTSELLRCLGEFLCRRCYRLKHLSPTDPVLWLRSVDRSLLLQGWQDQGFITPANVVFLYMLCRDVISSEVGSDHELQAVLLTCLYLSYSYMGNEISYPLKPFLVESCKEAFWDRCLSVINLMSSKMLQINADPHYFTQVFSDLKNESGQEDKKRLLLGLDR
CDK1/cyclinB(h), sequence (P14635 whole entry): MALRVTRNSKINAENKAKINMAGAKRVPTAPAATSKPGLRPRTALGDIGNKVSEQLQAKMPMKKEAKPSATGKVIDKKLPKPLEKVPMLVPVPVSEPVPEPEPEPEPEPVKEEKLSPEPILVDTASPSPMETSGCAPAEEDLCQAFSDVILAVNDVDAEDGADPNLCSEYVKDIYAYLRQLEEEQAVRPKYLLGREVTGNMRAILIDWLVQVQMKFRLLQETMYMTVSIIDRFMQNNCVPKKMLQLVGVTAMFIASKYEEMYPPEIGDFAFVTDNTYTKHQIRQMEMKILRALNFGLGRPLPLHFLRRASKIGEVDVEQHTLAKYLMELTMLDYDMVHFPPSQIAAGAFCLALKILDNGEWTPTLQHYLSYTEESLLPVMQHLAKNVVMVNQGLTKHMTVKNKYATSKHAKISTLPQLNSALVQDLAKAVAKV
CDK1/cyclinB(h), sequence (P06493 whole entry): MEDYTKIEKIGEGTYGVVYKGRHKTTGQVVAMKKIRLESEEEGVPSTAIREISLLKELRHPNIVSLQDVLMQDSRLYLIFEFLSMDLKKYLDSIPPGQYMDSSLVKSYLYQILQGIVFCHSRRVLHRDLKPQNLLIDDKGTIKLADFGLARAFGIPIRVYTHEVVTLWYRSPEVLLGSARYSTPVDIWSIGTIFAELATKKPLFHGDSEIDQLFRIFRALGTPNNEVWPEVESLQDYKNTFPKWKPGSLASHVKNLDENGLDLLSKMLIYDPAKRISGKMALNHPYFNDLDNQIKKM
CDK7/cyclinH/MAT1(h), sequence (P50613 whole entry): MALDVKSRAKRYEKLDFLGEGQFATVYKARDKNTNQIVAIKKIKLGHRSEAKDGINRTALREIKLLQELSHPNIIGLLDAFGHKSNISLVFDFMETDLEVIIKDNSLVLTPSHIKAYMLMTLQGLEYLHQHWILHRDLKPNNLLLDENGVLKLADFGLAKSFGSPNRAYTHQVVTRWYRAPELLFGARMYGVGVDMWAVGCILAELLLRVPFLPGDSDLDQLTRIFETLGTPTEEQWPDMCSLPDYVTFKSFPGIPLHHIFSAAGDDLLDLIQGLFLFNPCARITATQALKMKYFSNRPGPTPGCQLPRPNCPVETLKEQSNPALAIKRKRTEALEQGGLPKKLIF
CDK7/cyclinH/MAT1(h), sequence (P51946 whole entry partner): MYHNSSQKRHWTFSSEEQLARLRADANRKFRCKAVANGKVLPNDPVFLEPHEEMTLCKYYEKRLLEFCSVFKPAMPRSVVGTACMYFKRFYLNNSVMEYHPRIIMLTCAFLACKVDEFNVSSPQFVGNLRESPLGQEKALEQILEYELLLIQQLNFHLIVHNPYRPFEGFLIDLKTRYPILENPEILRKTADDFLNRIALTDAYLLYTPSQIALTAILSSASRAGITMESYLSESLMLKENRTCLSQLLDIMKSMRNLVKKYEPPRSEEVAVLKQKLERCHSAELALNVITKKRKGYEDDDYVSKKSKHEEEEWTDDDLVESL
CDK7/cyclinH/MAT1(h), sequence (P51948 whole entry partner): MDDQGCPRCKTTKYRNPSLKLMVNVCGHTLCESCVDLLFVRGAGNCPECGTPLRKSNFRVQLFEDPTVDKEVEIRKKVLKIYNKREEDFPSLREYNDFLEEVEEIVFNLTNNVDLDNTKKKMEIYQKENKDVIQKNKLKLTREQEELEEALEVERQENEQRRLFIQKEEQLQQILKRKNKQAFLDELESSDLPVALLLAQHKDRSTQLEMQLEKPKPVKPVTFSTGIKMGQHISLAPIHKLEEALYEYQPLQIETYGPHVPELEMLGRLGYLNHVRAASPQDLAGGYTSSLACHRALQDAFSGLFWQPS

COc1cc(F)ccc1-c1ncnc(Nc2cccc(C[S@](C)(=N)=O)c2)n1 [BAY 1143572, (R)‐4‐(4‐Fluoro‐2‐methoxyphenyl)‐N‐{3‐[(S‐methylsulfonimidoyl)methyl]phenyl}‐1,3,5‐triazin‐2‐amine]
Induction of CYP3A4 in vitro (CYP3A4): not observed | CLb, rat in vivo, i.v. (Rat PK study in vivo): 18.3 mL/min/kg | activity against Flt3 (Flt3(h)): did not show relevant activity | MTD at 14 days [1]: 12 mg/kg | tumor response (MV4‐11 human AML model; 12 mg kg^−1 daily oral for 14 days): almost complete tumor remission | tumor regrowth at the conclusion of the experiment (MV4‐11 human AML model; 57 days after initial inoculation, after 12 mg kg^−1 daily for 14 days): no tumor regrowth in nine of the 12 test animals | IC50 (MOLM‐13 cells): 310 nM | mean body weight reduction (MOLM‐13 human AML model): less than 10% | IC50 (HeLa cells): 920 nM | Sw, pH 6.5 [2]: 479 mg L^−1 | IC50 [3]: > 20000 nM | IC50 (CDK3/cyclinE(h)): 890 nM | IC50 (MV4‐11 cells): 890 nM

COc1cc(F)ccc1-c1ncnc(Nc2cccc(CS(N)(=O)=O)c2)n1 [BAY‐958, 1‐(3‐{[4‐(4‐Fluoro‐2‐methoxyphenyl)‐1,3,5‐triazin‐2‐yl]amino}phenyl)methanesulfonamide]
Induction of CYP3A4 in vitro (CYP3A4): not observed | IC50 (CDK1/cyclinB(h)): 690 nM | IC50 (CDK5/p35(h)): 800 nM | CLb, rat in vivo, i.v. (Rat PK study in vivo): 8.3 mL/min/kg and 8.33 mL/min/kg | half-life (Rat PK study in vivo; male, Wistar, plasma, iv): 42 min | F, rat in vivo, p.o. (Rat PK study in vivo; oral bioavailability): 10% | blood plasma ratio [4]: 3 | CLb, ratHep (rat hepatocytes): 5.5 mL/min/kg | efflux ratio at 2 h, 2 μM [5]: 15 | IC50 (MOLM‐13 cells): 280 nM | IC50 (HeLa cells): 1000 nM | Selectivity vs. CDK2, ratio of IC50 values (CDK2/CycE): 98 | IC50 (CDK7/cyclinH/MAT1(h)): > 10000 nM | IC50 [3]: > 20000 nM | IC50 (CDK3/cyclinE(h)): 570 nM | IC50 (CDK2/cyclinE(h)): 470 nM | IC50 (CDK9/cyclin T1(h)): 5 nM | selectivity vs. other CDKs (CDK9/cyclin T1(h); Millipore panel, relative to CDK9/CycT1 IC50): > 90 | CLb, ratLM [6]: 8 mL/min/kg | IC50 (CDK6/cyclinD3(h)): 4400 nM
